Data published in US11999739B2, “Antimicrobials methods of making and using the same” (BIOVERSYS AG, priority 2016, dated 2024).

Experiments:
[1] = tested on: Staphylococcus aureus (S. aureus) 11540 strain; assay: Standard microdilution MIC assay, S. aureus; type: cell-based
In short: (§1)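 MICs obtained by CLSI-standard microdilution, quality-controlled with reference strains in parallel. Values reported as + or − relative to a 16 micrograms/mL cutoff.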

[2] = tested on: Escherichia coli strain ATCC25922; assay: Standard microdilution MIC assay, E. coli; type: cell-based
In short: as §1

| SMILES | MIC [1] [µg/mL] | MIC [2] [µg/mL] |
| --- | --- | --- |
| CC(=N)NCC[C@@H]1COC[C@@H](c2ccc(-n3cc4cc(-c5cc(CCC[C@@H](N)C6CC6)cc(Cl)c5F)[nH]c4nc3=O)cc2)N1 [Compound 98] | ≤ 16 | ≤ 16 |
| C=C[C@H](N)CCCc1cc(-c2cc3cn(-c4ccc([C@@H]5CCC[C@@H](CCNC(C)=N)N5CCCF)cc4)c(=O)nc3[nH]2)cc(C(F)(F)F)c1 [Compound 346] | ≤ 16 | ≤ 16 |
| COC[C@H](N)CCCc1cc(-c2cc3cn(-c4ccc([C@@H]5CCC[C@@H](CCNC(C)=N)N5)c(OC(F)(F)F)c4)c(=O)nc3[nH]2)c(F)c(C(F)(F)F)c1 [Compound 216] | ≤ 16 | ≤ 16 |
| CC(=N)NCCCNCc1ccc(-n2cc3cc(-c4cc(CCC(C)(C)CN)cc(Cl)c4F)[nH]c3nc2=O)cc1F [Compound 73] | ≤ 16 | ≤ 16 |
| CC(=N)NCC[C@H](CO)NCc1ccc(-n2cc3cc(-c4cc(CCC(F)(F)CN)cc(Cl)c4F)[nH]c3nc2=O)cc1 [Compound 91] | ≤ 16 | ≤ 16 |
| C=CC(CCNC(=N)COC)NCc1ccc(-n2cc3cc(-c4cc(CCC[C@H](C)N)cc(Cl)c4F)[nH]c3nc2=O)cc1 (stereo partly drawn) [Compound 34] | ≤ 16 | ≤ 16 |
| CC(=N)NCC[C@@H]1CCC[C@@H](c2ccc(-n3cc4cc(-c5cc(CCC[C@H](C)N)cc(Cl)c5F)[nH]c4nc3=O)cc2)N1CCn1ccnc1C [Compound 263] | ≤ 16 | ≤ 16 |
| C=C[C@H](NCCCNC(C)=N)c1ccc(-n2cc3cc(-c4cc(CCC[C@@H](N)COC)cc(OC(F)(F)F)c4F)[nH]c3nc2=O)cc1 [Compound 268] | ≤ 16 | ≤ 16 |
| COC[C@H](N)CCCc1cc(OC(F)(F)F)c(F)c(-c2cc3cn(-c4ccc([C@@H]5CSC[C@@H](CCNC(C)=N)N5)cc4)c(=O)nc3[nH]2)c1 [Compound 270] | ≤ 16 | ≤ 16 |
| C=C[C@H](NCCCNC(C)=N)c1ccc(-n2cc3cc(-c4cc(CCC[C@@H](N)C=C)cc(Cl)c4F)[nH]c3nc2=O)cc1 [Compound 265] | ≤ 16 | ≤ 16 |
| C[C@H](N)CCCc1cc(Cl)c(F)c(-c2cc3cn(-c4ccc([C@@H]5CCC[C@@H](CCNC(=N)CCO)N5)cc4)c(=O)nc3[nH]2)c1 [Compound 357] | ≤ 16 | ≤ 16 |
| CC(=N)NCC[C@H](CO)N[C@@H](C)c1ccc(-n2cc3cc(-c4cc(CCC[C@@H](N)CO)cc(Cl)c4F)[nH]c3nc2=O)cc1F [Compound 163] | ≤ 16 | ≤ 16 |
| N=C(CF)NCC[C@H](CO)NCc1ccc(-n2cc3cc(-c4cc(CCC[C@@H](N)CO)cc(Cl)c4F)[nH]c3nc2=O)cc1 [Compound 84] | ≤ 16 | ≤ 16 |
| CC(=N)NCC[C@@H]1CCC[C@@H](c2ccc(-n3cc4cc(-c5cc(CCC[C@H](C)N)cc(Cl)c5F)[nH]c4nc3=O)cc2)N1C[C@@H](C)CO [Compound 365] | ≤ 16 | ≤ 16 |
| CC(=N)NCC[C@@H]1CCC[C@@H](c2ccc(-n3cc4cc(-c5cc(CCC[C@@H](N)C6CC6)cc(OC(F)(F)F)c5F)[nH]c4nc3=O)cc2F)N1 [Compound 208] | ≤ 16 | ≤ 16 |
| C=C[C@@H](CCNC(C)=N)NCc1ccc(-n2cc3cc(-c4cc(CCC[C@H](C)N)cc(Cl)c4F)[nH]c3nc2=O)cc1 [Compound 14] | ≤ 16 | ≤ 16 |
| C=C[C@@H](CCNC(C)=N)NCc1ccc(-n2cc3cc(-c4cc(CCC[C@@H](N)C(F)F)cc(Cl)c4F)[nH]c3nc2=O)cc1 [Compound 140] | ≤ 16 | ≤ 16 |
| C=C[C@H](N)CCCc1cc(-c2cc3cn(-c4ccc([C@@H]5CCC[C@@H](CCNC(C)=N)N5CCCF)c(SC)c4)c(=O)nc3[nH]2)cc(C(F)(F)F)c1 [Compound 342] | ≤ 16 | ≤ 16 |
| COC[C@H](N)CCCc1cc(OC(F)(F)F)c(F)c(-c2cc3cn(-c4ccc([C@@H]5CCC[C@@H](CCNC(C)=N)N5)c(SC)c4)c(=O)nc3[nH]2)c1 [Compound 198] | ≤ 16 | ≤ 16 |
| CSc1cc(-n2cc3cc(-c4cc(CCC[C@@H](N)C5CC5)cc(Cl)c4F)[nH]c3nc2=O)cc(F)c1[C@@H]1CCC[C@@H](CCNC(C)=N)N1CCCF [Compound 338] | ≤ 16 | ≤ 16 |
| CSC[C@@H](CCNC(C)=N)NCc1ccc(-n2cc3cc(-c4cc(CCC[C@H](C)N)cc(Cl)c4F)[nH]c3nc2=O)cc1 [Compound 95] | ≤ 16 | ≤ 16 |
| CC(=N)NCC[C@H](CNc1ncc[nH]1)N[C@@H](C)c1ccc(-n2cc3cc(-c4cc(CCC[C@H](C)N)cc(Cl)c4F)[nH]c3nc2=O)cc1 [Compound 165] | ≤ 16 | ≤ 16 |
| CC(=N)NCC[C@@H]1CSC[C@@H](c2ccc(-n3cc4cc(-c5cc(CCC[C@H](C)N)cc(Cl)c5F)[nH]c4nc3=O)cc2)N1 [Compound 271] | ≤ 16 | ≤ 16 |
| COCCN1[C@H](CCNC(C)=N)CCC[C@H]1c1ccc(-n2cc3cc(-c4cc(CCC[C@H](C)N)cc(Cl)c4F)[nH]c3nc2=O)cc1 [Compound 277] | ≤ 16 | ≤ 16 |

| SMILES | MIC [1] [µg/mL] | MIC [2] [µg/mL] |
| --- | --- | --- |
| C=CCN(CC[C@@H]1CCC[C@@H](c2ccc(-n3cc4cc(-c5cc(CCC[C@H](C)N)cc(Cl)c5F)[nH]c4nc3=O)cc2)N1C)C(C)=N [Compound 180] | ≤ 16 | ≤ 16 |
| CC(=N)NCCCNC1(c2ccc(-n3cc4cc(-c5cc(CCC[C@@H](N)CO)cc(Cl)c5F)[nH]c4nc3=O)cc2)CC1 [Compound 138] | ≤ 16 | ≤ 16 |
| CC(=N)NCCCNCc1ccc(-n2cc3cc(-c4cc(CCC[C@H](C)N)cc(Cl)c4F)[nH]c3nc2=O)cc1F [Compound 76] | ≤ 16 | ≤ 16 |
| C=C[C@@H](CCNC(C)=N)NCc1ccc(-n2cc3cc(-c4cc(CCCC5(N)CC5)cc(Cl)c4F)[nH]c3nc2=O)cc1 [Compound 146] | ≤ 16 | ≤ 16 |
| C=C[C@H](N)CCCc1cc(-c2cc3cn(-c4cc(F)c([C@@H]5CCC[C@@H](CCNC(C)=N)N5CCCF)c(SC)c4)c(=O)nc3[nH]2)cc(C(F)(F)F)c1 [Compound 351] | ≤ 16 | ≤ 16 |
| C[C@H](N)CCCc1cc(Cl)c(F)c(-c2cc3cn(-c4ccc([C@@H]5CCC[C@@H](CCNC(=N)CF)N5C)cc4)c(=O)nc3[nH]2)c1 [Compound 108] | ≤ 16 | ≤ 16 |
| CC(=N)NCC[C@@H]1CCC[C@@H](c2ccc(-n3cc4cc(-c5cc(CCC[C@H](C)N)cc(Cl)c5F)[nH]c4nc3=O)cc2)N1C[C@H](C)CO [Compound 366] | ≤ 16 | ≤ 16 |
| CC(=N)NCCCN[C@@H](C)c1ccc(-n2cc3cc(-c4cc(CCC[C@@H](N)C(F)(F)F)cc(Cl)c4F)[nH]c3nc2=O)cc1 [Compound 102] | ≤ 16 | ≤ 16 |
| CC(=N)NCC[C@H](CO)NCc1ccc(-n2cc3cc(-c4cc(CCC[C@@H](N)CF)cc(Cl)c4F)[nH]c3nc2=O)cc1 [Compound 100] | ≤ 16 | ≤ 16 |
| CC(=N)NCC[C@@H]1CCC[C@@H](c2ccc(-n3cc4cc(-c5cc(CCC[C@@H](N)CF)cc(Cl)c5F)[nH]c4nc3=O)cc2)N1 [Compound 104] | ≤ 16 | ≤ 16 |
| C=C[C@@H](N)CCCc1cc(Cl)c(F)c(-c2cc3cn(-c4ccc([C@@H]5COC[C@@H](CCNC(C)=N)N5)cc4)c(=O)nc3[nH]2)c1 [Compound 56] | ≤ 16 | ≤ 16 |
| C=C[C@@H](CCNC(C)=N)NCc1ccc(-n2cc3cc(-c4cc(CCC(F)(F)CN)cc(Cl)c4F)[nH]c3nc2=O)cc1 [Compound 105] | ≤ 16 | ≤ 16 |
| C[C@H](N)CCCc1cc(Cl)c(F)c(-c2cc3cn(-c4ccc(CN[C@H](CCNC(=N)CF)CNc5ncc[nH]5)cc4)c(=O)nc3[nH]2)c1 [Compound 21] | ≤ 16 | ≤ 16 |
| C=C[C@H](N)CCCc1cc(Cl)c(F)c(-c2cc3cn(-c4cc(F)c([C@@H]5CCC[C@@H](CCNC(C)=N)N5CCCF)c(SC)c4)c(=O)nc3[nH]2)c1 [Compound 350] | ≤ 16 | ≤ 16 |
| CC(=N)NCC[C@@H]1COC[C@@H](c2ccc(-n3cc4cc(-c5cc(CCCC(C)(C)N)cc(Cl)c5F)[nH]c4nc3=O)cc2)N1 [Compound 68] | ≤ 16 | ≤ 16 |
| C=C[C@@H](N)CCCc1cc(Cl)c(F)c(-c2cc3cn(-c4ccc(C5(NCCCNC(C)=N)CC5)cc4)c(=O)nc3[nH]2)c1 [Compound 144] | ≤ 16 | ≤ 16 |
| C=C[C@@H](CCNC(C)=N)N[C@@H](C)c1ccc(-n2cc3cc(-c4cc(CCC[C@@H](N)CO)cc(Cl)c4F)[nH]c3nc2=O)cc1 [Compound 151] | ≤ 16 | ≤ 16 |
| COc1cc(-n2cc3cc(-c4cc(CCC[C@@H](N)C5CC5)cc(C(F)(F)F)c4F)[nH]c3nc2=O)ccc1[C@@H]1CCC[C@@H](CCNC(C)=N)N1 [Compound 235] | ≤ 16 | ≤ 16 |
| C=CC(CCNC(=N)CF)NCc1ccc(-n2cc3cc(-c4cc(CCC[C@@H](N)C(F)(F)F)cc(Cl)c4F)[nH]c3nc2=O)cc1 (stereo partly drawn) [Compound 13] | > 16 | > 16 |
| C=C[C@H](N)CCCc1cc(Cl)c(F)c(-c2cc3cn(-c4ccc([C@@H]5CCC[C@@H](CCNC(C)=N)N5)c(S(C)(=O)=O)c4)c(=O)nc3[nH]2)c1 [Compound 272] | ≤ 16 | ≤ 16 |
| CC(=N)NCC[C@@H]1CCC[C@@H](c2ccc(-n3cc4cc(-c5cc(CCC[C@@H](N)C6CC6)cc(Cl)c5F)[nH]c4nc3=O)cc2)N1 [Compound 78] | ≤ 16 | ≤ 16 |
| CC(=N)NCC[C@@H]1CCC[C@@H](c2ccc(-n3cc4cc(-c5cc(CCC[C@@H](N)C6CC6)cc(C(F)(F)F)c5)[nH]c4nc3=O)cc2OC(F)(F)F)N1 [Compound 217] | ≤ 16 | ≤ 16 |
| C=C[C@@H](N)CCCc1cc(Cl)c(F)c(-c2cc3cn(-c4ccc(CN[C@@H](C=C)CCNC(=N)CF)cc4)c(=O)nc3[nH]2)c1 [Compound 37] | ≤ 16 | ≤ 16 |
| CC(=N)NCC[C@@H]1CCC[C@@H](c2ccc(-n3cc4cc(-c5cc(CCC[C@@H](N)C6CC6)cc(OC(F)(F)F)c5F)[nH]c4nc3=O)cc2)N1 [Compound 207] | ≤ 16 | ≤ 16 |
